Numbered stars: 1 amine (or outer) side, 2 acyl side, 3 side chain; on linkers, the order of the positions; unused ones are H or OH. Square brackets hold non-standard residues; d marks the D form. Peptide text beside a SMILES is read from it. * marks the point of attachment. dArg(Nω-CONH(CH2)2NHCOEt) = CCC(=O)NCCNC(=O)/N=C(/N)NCCC[C@@H](N)C(=O)O; DOTA = O=C(O)CN1CCN(CC(=O)O)CCN(CC(=O)*)CCN(CC(=O)O)CC1; X1 = O=C([C@H](c1ccc(OCCCN[*:1])cc1)N1Cc2ccccc2C1)[*:2]; NH(2,6-F2-4-OH-benzyl) = Oc1cc(F)c(CN*)c(F)c1; βAla = NCCC(=O)O
target: hNPY1R (Homo sapiens (Human), UniProt P25929); assay: NPY1R binding assay (SK-N-MC membrane, [125I]-Peptide YY competition); conditions: crude SK-N-MC membranes endogenously expressing NPY1R; [125I]-Peptide YY (human) 0.05 nM; 120 min at room temperature; read-out: hNPY1R binding Ki;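 note: bound radioligand separated by filtration over GF/C filter plates and counted, Ki obtained by non-linear regression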
Sequence (P25929 whole entry): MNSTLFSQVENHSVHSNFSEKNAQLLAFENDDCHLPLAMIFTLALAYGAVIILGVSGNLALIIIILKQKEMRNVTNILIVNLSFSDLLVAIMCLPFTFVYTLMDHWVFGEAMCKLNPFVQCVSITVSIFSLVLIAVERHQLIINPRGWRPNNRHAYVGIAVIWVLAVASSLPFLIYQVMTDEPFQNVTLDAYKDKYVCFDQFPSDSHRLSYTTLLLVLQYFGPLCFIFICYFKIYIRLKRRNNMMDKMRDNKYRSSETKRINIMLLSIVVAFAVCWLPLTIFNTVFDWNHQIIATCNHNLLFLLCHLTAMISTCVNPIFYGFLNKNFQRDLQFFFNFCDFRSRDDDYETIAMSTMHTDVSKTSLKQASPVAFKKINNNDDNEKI
Experimental: Crude membrane fractions are prepared from SK-N-MC cells endogenously expressing the NPY1R receptor. The cells are grown to 85-100% confluence on standard tissue culture dishes in Eagle's Minimum Essential Medium supplemented with 10% dialyzed FBS. To prepare membranes, cells are scraped and collected in 1× Dulbecco's phosphate buffered saline and then pelleted at 1000 RPM's. The cell pellet is reconstituted in membrane preparation buffer (20 mM HEPES, 6 mM MgCl2 and 1 mM EGTA, protease inhibitor tablets, pH 7.4) and placed in a cell disruption vessel at 1000 PSI for 30 minutes on ice. The pressurized contents are then released and spun down at 1000 RPMs and the supernatant is collected and further centrifuged at 15,000 RPMs to pellet the membranes. The membrane pellet is resuspended in membrane preparation buffer, snap frozen and stored at −80° C. for later use.
Assay contents are then filtered through unifilter GF/C microplates and washed with 9×400 μl of cold wash buffer (25 mM HEPES, 5 mM MgCl2, 1 mM CaCl2), 500 mM NaCl, 0.1% Tween-20, pH 7.4). Assay plates are read using a Top Count NXT and Ki values for compounds are determined using a GraphPad Prism 6 non-linear regression analysis.

SMILES | Ki [nM]
CCC(=O)NCCNC(=O)/N=C(/N)NCCC[C@@H](NC(=O)[C@H](c1ccc(OCCCNC(=O)[C@@H](CO)NC(=O)[C@@H](CO)NC(=O)[C@@H](CO)NC(=O)CCNC(=O)CN2CCN(CC(=O)O)CCN(CC(=O)O)CCN(CC(=O)O)CC2)cc1)N1Cc2ccccc2C1)C(=O)NCc1c(F)cc(O)cc1F [compound 54, 2,2′,2″-(10-((8R,11R,14R)-19-(4-((1S,4R,Z)-9-amino-4-((2,6-difluoro-4-hydroxybenzyl)carbamoyl)-1-(isoindolin-2-yl)-2,11,16-trioxo-3,8,10,12,15-pentaazaoctadec-9-en-1-yl)phenoxy)-8,11,14-tris(hydroxymethyl)-2,6,9,12,15-pentaoxo-3,7,10,13,16-pentaazanonadecyl)-1,4,7,10-tetraazacyclododecane-1,4,7-triyl)triacetic acid] ({DOTA-βAla}-[dS][dS][dS][X1][dArg(Nω-CONH(CH2)2NHCOEt)]-{NH(2,6-F2-4-OH-benzyl)}) | < 10
CCC(=O)NCCNC(=O)/N=C(/N)NCCC[C@@H](NC(=O)[C@H](c1ccc(OCCCNC(=O)C[C@H](O)C[C@H](O)CCNC(=O)CN2CCN(CC(=O)O)CCN(CC(=O)O)CCN(CC(=O)O)CC2)cc1)N1Cc2ccccc2C1)C(=O)NCc1c(F)cc(O)cc1F [compound 6, 2,2′,2″-(10-(2-(((3R,5R)-7-((3-(4-((1S,4R,Z)-9-amino-4-((2,6-difluoro-4-hydroxybenzyl)carbamoyl)-1-(isoindolin-2-yl)-2,11,16-trioxo-3,8,10,12,15-pentaazaoctadec-9-en-1-yl)phenoxy)propyl)amino)-3,5-dihydroxy-7-oxoheptyl)amino)-2-oxoethyl)-1,4,7,10-tetraazacyclododecane-1,4,7-triyl)triacetic acid-2,2,2-trifluoroacetic acid (1/1)] | < 10
CCC(=O)NCCNC(=O)/N=C(/N)NCCC[C@@H](NC(=O)[C@H](c1ccc(OCCCNC(=O)CCC(=O)NCCNC(=O)CN2CCN(CC(=O)O)CCN(CC(=O)O)CCN(CC(=O)O)CC2)cc1)N1Cc2ccccc2C1)C(=O)NCc1c(F)cc(O)cc1F [compound 7, 2,2′,2″-(10-(2-((2-(4-((3-(4-((1S,4R,Z)-9-amino-4-((2,6-difluoro-4-hydroxybenzyl)carbamoyl)-1-(isoindolin-2-yl)-2,11,16-trioxo-3,8,10,12,15-pentaazaoctadec-9-en-1-yl)phenoxy)propyl)amino)-4-oxobutanamido)ethyl)amino)-2-oxoethyl)-1,4,7,10-tetraazacyclododecane-1,4,7-triyl)triacetic acid-2,2,2-trifluoroacetic acid (1/1)] | < 10
CCC(=O)NCCNC(=O)/N=C(/N)NCCC[C@@H](NC(=O)[C@H](c1cccc(NC(=O)CCCNc2c(NCCCCCCNC(=O)CN3CCN(CC(=O)O)CCN(CC(=O)O)CCN(CC(=O)O)CC3)c(=O)c2=O)c1)N1Cc2ccccc2C1)C(=O)NCc1c(F)cc(O)cc1F (single isomer, unassigned) [31A] | < 10
CCC(=O)NCCNC(=O)/N=C(/N)NCCC[C@@H](NC(=O)[C@H](c1ccc(OCCCNC(=O)[C@H]2CC[C@H](CNC(=O)CN3CCN(CC(=O)O)CCN(CC(=O)O)CCN(CC(=O)O)CC3)CC2)cc1)N1Cc2ccccc2C1)C(=O)NCc1ccc(O)cc1 [compound 18, 2,2′,2″-(10-(2-((((1S,4r)-4-((3-(4-((1S,4R,Z)-9-amino-4-((4-hydroxybenzyl)carbamoyl)-1-(isoindolin-2-yl)-2,11,16-trioxo-3,8,10,12,15-pentaazaoctadec-9-en-1-yl)phenoxy)propyl)carbamoyl)cyclohexyl)methyl)amino)-2-oxoethyl)-1,4,7,10-tetraazacyclododecane-1,4,7-triyl)triacetic acid] | < 10
CCC(=O)NCCNC(=O)/N=C(/N)NCCC[C@@H](NC(=O)[C@H](c1cccc(NCCCNC(=O)CCCCCNC(=O)CN2CCN(CC(=O)O)CCN(CC(=O)O)CCN(CC(=O)O)CC2)c1)N1Cc2ccccc2C1)C(=O)NCc1ccc(O)cc1 [compound 19, 2,2′,2″-(10-(2-((6-((3-((3-((1S,4R,Z)-9-amino-4-((4-hydroxybenzyl)carbamoyl)-1-(isoindolin-2-yl)-2,11,16-trioxo-3,8,10,12,15-pentaazaoctadec-9-en-1-yl)phenyl)amino)propyl)amino)-6-oxohexyl)amino)-2-oxoethyl)-1,4,7,10-tetraazacyclododecane-1,4,7-triyl)triacetic acid] | < 10
N=C(N)NCCC[C@@H](NC(=O)[C@H](c1ccccc1)N1Cc2ccccc2C1)C(=O)NCc1ccc(O)cc1 [compound 70, (R)-5-guanidino-N-(4-hydroxybenzyl)-2-((S)-2-(isoindolin-2-yl)-2-phenylacetamido)pentanamide] | 10 to 100
CCC(=O)NCCNC(=O)/N=C(/N)NCCC[C@@H](NC(=O)[C@H](c1ccccc1)N1Cc2cccc(NC(=O)CCCNC(=O)CCCCCNC(=O)CN3CCN(CC(=O)O)CCN(CC(=O)O)CCN(CC(=O)O)CC3)c2C1)C(=O)NCc1c(F)cc(O)cc1F [compound 9, 2,2′,2″-(10-(2-((6-((4-((2-((1S,4R,Z)-9-amino-4-((2,6-difluoro-4-hydroxybenzyl)carbamoyl)-2,11,16-trioxo-1-phenyl-3,8,10,12,15-pentaazaoctadec-9-en-1-yl)isoindolin-4-yl)amino)-4-oxobutyl)amino)-6-oxohexyl)amino)-2-oxoethyl)-1,4,7,10-tetraazacyclododecane-1,4,7-triyl)triacetic acid] | < 10
N=C(N)NCCC[C@@H](NC(=O)C(c1ccccc1)N1CCCCC1)C(=O)NCc1ccc(O)cc1 (stereo partly drawn) [compound 72, (2R)-5-guanidino-N-(4-hydroxybenzyl)-2-(2-phenyl-2-(piperidin-1-yl)acetamido)pentanamide] | 100 to 1000
CCC(=O)NCCNC(=O)/N=C(/N)NCCC[C@@H](NC(=O)[C@H](c1ccc(OCCCNC(=O)C[C@H]2NC(=O)[C@@H](CCCNC(=O)CN3CCN(CC(=O)O)CCN(CC(=O)O)CCN(CC(=O)O)CC3)NC2=O)cc1)N1Cc2ccccc2C1)C(=O)NCc1c(F)cc(O)cc1F [compound 38, 2,2′,2″-(10-(2-((3-((2R,5R)-5-(2-((3-(4-((1S,4R,Z)-9-amino-4-((2,6-difluoro-4-hydroxybenzyl)carbamoyl)-1-(isoindolin-2-yl)-2,11,16-trioxo-3,8,10,12,15-pentaazaoctadec-9-en-1-yl)phenoxy)propyl)amino)-2-oxoethyl)-3,6-dioxopiperazin-2-yl)propyl)amino)-2-oxoethyl)-1,4,7,10-tetraazacyclododecane-1,4,7-triyl)triacetic acid] | < 10
CCC(=O)NCCNC(=O)/N=C(/N)NCCC[C@@H](NC(=O)[C@H](c1cccc(NCCCNC(=O)CCCCCNC(=O)CN2CCC(NC(=O)CN3CCN(CC(=O)O)CCN(CC(=O)O)CCN(CC(=O)O)CC3)CC2)c1)N1Cc2ccccc2C1)C(=O)NCc1ccc(O)cc1 [compound 28, 2,2′,2″-(10-(2-((1-(2-((6-((3-((3-((1S,4R,Z)-9-amino-4-((4-hydroxybenzyl)carbamoyl)-1-(isoindolin-2-yl)-2,11,16-trioxo-3,8,10,12,15-pentaazaoctadec-9-en-1-yl)phenyl)amino)propyl)amino)-6-oxohexyl)amino)-2-oxoethyl)piperidin-4-yl)amino)-2-oxoethyl)-1,4,7,10-tetraazacyclododecane-1,4,7-triyl)triacetic acid] | < 10
CCC(=O)NCCNC(=O)/N=C(/N)NCCC[C@@H](NC(=O)C(c1cccc(NC(=O)CCCNC(=O)[C@@H](CO)NC(=O)CCNC(=O)CN2CCN(CC(=O)O)CCN(CC(=O)O)CCN(CC(=O)O)CC2)c1)N1Cc2ccccc2C1)C(=O)NCc1c(F)cc(O)cc1F (single isomer, unassigned) [32A] | < 10
CCC(=O)NCCNC(=O)/N=C(/N)NCCC[C@@H](NC(=O)[C@H](c1ccc(OCCCNC2CCN(C(=O)CCCCCNC(=O)CN3CCN(CC(=O)O)CCN(CC(=O)O)CCN(CC(=O)O)CC3)CC2)cc1)N1Cc2ccccc2C1)C(=O)NCc1c(F)cc(O)cc1F [compound 5, 2,2′,2″-(10-(2-((6-(4-((3-(4-((1S,4R,Z)-9-amino-4-((2,6-difluoro-4-hydroxybenzyl)carbamoyl)-1-(isoindolin-2-yl)-2,11,16-trioxo-3,8,10,12,15-pentaazaoctadec-9-en-1-yl)phenoxy)propyl)amino)piperidin-1-yl)-6-oxohexyl)amino)-2-oxoethyl)-1,4,7,10-tetraazacyclododecane-1,4,7-triyl)triacetic acid-2,2,2-trifluoroacetic acid (1/1)] | < 10
CCC(=O)NCCNC(=O)/N=C(/N)NCCC[C@@H](NC(=O)[C@@H](c1ccc(OCCCN)cc1)N1Cc2ccccc2C1)C(=O)NCc1ccc(O)cc1 [64B] | 10 to 100
CCC(=O)NCCNC(=O)/N=C(/N)NCCC[C@@H](NC(=O)[C@@H](c1cccc(NC(=O)CCCNC(=O)CCCCCNC(=O)CN2CCN(CC(=O)O)CCN(CC(=O)O)CCN(CC(=O)O)CC2)c1)N1Cc2ccccc2C1)C(=O)NCc1ccc(O)cc1 [3B, 2,2′,2″-(10-(2-((6-((4-((3-((1R,4R,Z)-9-amino-4-((4-hydroxybenzyl)carbamoyl)-1-(isoindolin-2-yl)-2,11,16-trioxo-3,8,10,12,15-pentaazaoctadec-9-en-1-yl)phenyl)amino)-4-oxobutyl)amino)-6-oxohexyl)amino)-2-oxoethyl)-1,4,7,10-tetraazacyclododecane-1,4,7-triyl)triacetic acid] | < 10
CCC1CCN(C(C(=O)N[C@H](CCCNC(=N)N)C(=O)NCc2ccc(O)cc2)c2ccccc2)CC1 (stereo partly drawn) [compound 79, (2R)-2-(2-(4-ethylpiperidin-1-yl)-2-phenylacetamido)-5-guanidino-N-(4-hydroxybenzyl)pentanamide] | 10 to 100
CCC(=O)NCCNC(=O)/N=C(/N)NCCC[C@@H](NC(=O)[C@H](c1ccc(OCCCNC(=O)CCCCCNC(=O)CN2CCN(CC(=O)O)CCN(CC(=O)O)CCN(CC(=O)O)CC2)cc1)N1Cc2ccccc2C1)C(=O)NCc1ccc(O)cc1 [1A, 2,2′,2″-(10-(2-((6-((3-(4-((1S,4R,Z)-9-amino-4-((4-hydroxybenzyl)carbamoyl)-1-(isoindolin-2-yl)-2,11,16-trioxo-3,8,10,12,15-pentaazaoctadec-9-en-1-yl)phenoxy)propyl)amino)-6-oxohexyl)amino)-2-oxoethyl)-1,4,7,10-tetraazacyclododecane-1,4,7-triyl)triacetic acid] | < 10

— patent US20250213735A1, “NEUROPEPTIDE Y1 RECEPTOR (NPY1R) TARGETED THERAPEUTICS AND USES THEREOF” (Radionetics Oncology, Inc., priority 2023, published 2025)
